Test results from US8841422B2, “Human androgen receptor alternative splice variants” (University of Maryland, Baltimore, priority 2008, dated 2014).

B1: shAR3-1: lentivirus encoded shRNA specific for AR3 isoform, made using SEQ ID NOS: 13 and 14 (nucleic acid)
chain 1: TGTAATAGTGGTTACCACTCTTCAAGAGAGAGTGGTAACCACTATTACTTTTTTTTC
chain 2: TCGAGAAAAAAAAGTAATAGTGGTTACCACTCTCTCTTGAAGAGTGGTAACCACTATTACA

What was measured:
[1] = test system: AR; format: cell-based, human; conditions: LNCaP cells
Description: (H) LNCaP cells were infected with (+) or without (−) the lentivirus encoding AR shRNA (shAR) as described previously. At 6 hr postinfection, the cells were transfected with ARR2-Luciferase reporter along with AR3 or the codon-switched wild-type AR expressing vector (ARcs).
Briefly, cells grown in 24-well plates were transiently transfected with different plasmid constructs using LipofectAM1NE 2000 (Invitrogen) for LNCaP cells and FuGENE HI) (Roche) for COS-1 cells following the manufacturer's instruction. […] Dual-Luciferase assays were performed according to the protocol from the manufacturer (Promega).

[2] = test system: 80 kD ARs; assay: Western blot with anti-AR after AR shRNAs in CWR-R1 cells; format: cell-based, human; conditions: 48 hr post infection
Description: FIGS. 1A-H: Cloning of novel alternative splice AR isoforms. (A) Presence of the short forms of AR in prostate cancer cells. Total cell lysates of different prostate cancer cells were blotted with anti-AR (441) antibody (upper) and anti-Actin antibody (lower). (B) Selective knockdown of AR long/short forms by AR shRNAs. CWR-R1 cells were infected with the lentivirus encoding AR shRNAa, AR shRNAb, and AR shRNAc (shARa, shARb and shARc) targeting different exons of AR as indicated in (D). At 48 hr post infection, the total cell lysates were subjected to western blot with anti-AR antibody. The same blot was stained with Coomassie Blue to show the protein loading (right panel). (C) Presence of AR isoform transcripts in CWR-R1 cells. Total RNA was isolated from CWR-R1 cells and reverse transcribed. The primer derived from AR shRNAc sequence was used to perform a rapid amplification of cDNA 3′-end (3′-RACE) with the RACE oligo-dT primer or a control primer. (D) Schematic structure of the human AR splice variants. The hatched cassettes stand for the cryptic exons. Solid thick lines represent the transcribed sequences. (E) Expression of AR isoforms in prostate cancer cells. The relative expression levels of AR, AR3, AR4 and AR5 were quantified using real-time PCR with the isoform specific primer pair sets described in Methods (left panel). The AR level in LNCaP cells was arbitrarily set as 1. The expression levels of AR3 in LNCaP and C-8 1 cells were further plotted with a higher resolution. *p<0.05 (right panel). (F) Transcriptional activity of AR isoforms. COS-1 cells were transfected with ARR.2-luciferase reporter gene together with AR, AR3, AR4 and AR5 expression vector. At 24 hr posttransfection, the cells were lysed and the luciferase activity was measured. The data were expressed as relative promoter activity, the changes of luciferase activity relative to the untreated control (arbitrarily set as 1). (G) COS-1 cells were transfected with ARR2-Luciferase reporter along with increasing doses of AR3 or AR expressing vector. […]

[3] = test system: 22Rv1 cells; assay: In vitro cell growth assay in androgen-depleted condition; format: cell-based, human; conditions: 22Rv1, 2 weeks culture, Coomassie Blue staining
Method: (§1) FIGS. 4A-D: AR3 promotes androgen-independent growth of prostate cancer cells. LNCaP cells were infected with lentivirus encoding AR3 expression construct (AR3) or the control vector. After 2-week culture in androgen-depleted condition, the cells were visualized by Coomassie Blue staining (A). At 48 hr post infection, the cells were injected into the castrated SCID mice and the growth of the tumor cells were monitored weekly. The result represent the mean tumor volume±SE (n=5 mice/group), *p<0.05 Inset, Western blots of anti-AR3 and anti-AR of the LNCaP xenograft tumor lysates (B). CWR-R1 and 22Rv1 cells were infected with lentivirus encoding AR3 shRNA-1 (shAR3) or control shRNA (shCon). After 2 weeks culture in androgen-depleted condition, the cells were visualized by Coomassie Blue staining (C). At 48 hr postinfection, the cells were injected into the castrated male nude mice. The growth of the tumors was monitored weekly. The result represents the mean tumor volume±SE (n=5 mice/group), *p<0.05 (D). […]
(§2) In vitro cell growth assay and In vivo tumor growth in xenograft models LNCaP, CWR-R1 and 22Rv1 cells were infected with the lentiviruses bearing the shRNA sequences and the AR3 expression constructs as indicated. […] The volumes of the tumors formed on both sides were measured weekly and calculated by using the formula: 0.5236×r1^2×r2 (r1<r2). […]

[4] = test system: CWR-R1 cells; assay: as above; format: cell-based, human; conditions: CWR-R1, 2 weeks culture, Coomassie Blue staining
Method: as §1, §2

[5] = test system: CWR-R1 xenograft; assay: In vivo tumor growth in xenograft model, castrated male nude mice; conditions: CWR-R1 cells infected 48 hr before s.c. injection
Method: as §1, §2

[6] = test system: 22Rv1 xenograft; assay: as above; conditions: 22Rv1 cells infected 48 hr before s.c. injection
Method: as §1, §2

| Molecule | activity of endogenous AR or codon-switched wild-type AR (luciferase reporter) [1] | knock-down of 80 kD ARs [2] | further results |
| --- | --- | --- | --- |
| C[C@]12CCC(=O)C[C@@H]1CC[C@@H]1[C@@H]2CC[C@]2(C)[C@@H](O)CC[C@@H]12 [DHT] | induced | – | – |
| CC(O)(CS(=O)(=O)c1ccc(F)cc1)C(=O)Nc1ccc(C#N)c(C(F)(F)F)c1 (stereo not drawn) [casodex] | blocked | – | – |
| shARa: shRNA specific for human AR gene, lentiviral pLKO.1-puro vector from Sigma, targeting Exon 8, SEQ ID NO: 10 (CCGGCCTGCTAATCAAGTCACACATCTCGAGATGTGTGACTTGATTAGCAGGTTTTT) | – | barely affected | – |
| shARb: shRNA specific for human AR gene, lentiviral pLKO.1-puro vector from Sigma, targeting Exon 5, SEQ ID NO: 11 (CCGGCACCAATGTCAACTCCAGGATCTCGAGATCCTGGAGTTGACATTGGTGTTTTT) | – | barely affected | – |
| shARc: shRNA specific for human AR gene, lentiviral pLKO.1-puro vector from Sigma, targeting the 1st Exon, SEQ ID NO: 12 (CCGGCGCGACTACTACAACTTTCCACTCGAGTGGAAAGTTGTAGTAGTCGCGUTTT) | – | efficiently knocked down | – |
| B1 | – | – | cell growth in androgen-depleted medium [3]: attenuated their growth; cell growth in androgen-depleted medium [4]: attenuated their growth; tumor growth in castrated nude mice [5]: attenuated their growth; tumor growth in castrated nude mice [6]: attenuated their growth |
